Experimental data reported in patent US6103767A, “Physiologically active substances TKR1785's, process for the preparation thereof, and microbe” (Takara Shuzo Co., Ltd., priority 1996, dated 2000).
Converted amounts (≈) assume the structure as drawn.

Experiments:
[1] = test system: Aspargillus fumigatus TIMM1776; assay: Antifungal activity, liquid medium dilution method; type: cell-based; settings: Aspargillus fumigatus TIMM1776, BHI medium; for IC50: read-out: 50% inhibitory concentration (in parentheses); for MIC: read-out: Minimal inhibitory concentration
Protocol: (§1) The antifungal activity of the above substance TKR1785 against various microorganisms was investigated. Using the liquid medium dilution method, the concentration which caused substantially complete Inhibition of growth was determined as minimal inhibitory concentration (μg/ml). The concentration causing a partial inhibition of growth was also determined as 50% inhibitory concentration (μg/ml) and is shown in parentheses of table 2. In the table, YNBG represents a medium containing 0.67% of yeast nitrogen base (Difco) and 1% of glucose. BHI represents a medium containing 0.5% of brain heart infusion bouillon (Nissui Pharmaceutical). YNBG-Tween represents a medium containing 0.67% of yeast nitrogen base, 0.5% bactocasitone, 2% of glucose, and 1% of Tween 40.

[2] = test system: Candida albicans TIMM0136; assay: Antifungal activity, liquid medium dilution method; type: cell-based; settings: Candida albicans TIMM0136, YNBG medium; for IC50: partial inhibition of growth, read-out: 50% inhibitory concentration (in parentheses); for MIC: substantially complete inhibition of growth, read-out: Minimal inhibitory concentration
Protocol: as §1

[3] = test system: Candida kefir TIMM0301; assay: Antifungal activity, liquid medium dilution method; type: cell-based; settings: Candida kefir TIMM0301, YNBG medium; for MIC: read-out: Minimal inhibitory concentration
Protocol: as §1

[4] = test system: Cryptococcus neoformans TIMM0354; assay: Antifungal activity, liquid medium dilution method; type: cell-based; settings: Cryptococcus neoformans TIMM0354, YNBG medium; for IC50: read-out: 50% inhibitory concentration (in parentheses); for MIC: read-out: Minimal inhibitory concentration
Protocol: as §1

[5] = test system: ICR mice; assay: Toxicity in mice, intraperitoneal; type: in vivo; settings: intraperitoneally, 50 mg/kg
[6] = test system: Malassezia furfur TIMM2782; assay: Antifungal activity, liquid medium dilution method; type: cell-based; settings: Malassezia furfur TIMM2782, YNBG-Tween medium; read-out: 50% inhibitory concentration (in parentheses)
Protocol: as §1

[7] = test system: phospholipase A2 (derived from porcine pancreas); assay: Phospholipase A2 inhibitory activity ([14C]palmitic acid release from [14C]phosphatidylcholine); type: biochemical
Protocol: (§2) The inhibitory activity of TKR1785-I against phospholipase A2 (derived from porcine pancreas) and leukotriene (LT) C4 synthase (derived from the guinea-pig lung), which are enzymes related to the immune system, was determined. Phospholipase A2 activity was assayed for a hexane extract under acidic conditions by determining the [^14 C]palmitic acid released from [^14 C]phosphatidylcholine. LTC4 synthase activity was assayed by determining the yield of LTC4 from LTA4 by the RIA method.

[8] = test system: leukotriene (LT) C4 synthase (derived from the guinea-pig lung); assay: LTC4 synthase inhibitory activity (yield of LTC4 from LTA4 by RIA); type: biochemical
Protocol: as §2

[9] = test system: Mixed lymphocyte reaction (C57BL/6 responder cells, BALB/c stimulator cells); assay: Mixed lymphocyte reaction (MLR) inhibitory activity, 3H-thymidine uptake; type: cell-based, mice; settings: mouse spleen cells, 3H-thymidine uptake vs sample-free group, read-out: 50% inhibitory concentration, MLR-inhibitory activity
Protocol: From C57BL/6 and BALB/c mice, the spleen was isolated and homogenized in a medium to provide a cell suspension. The cell suspension derived from C57BL/6 mice was passed through a nylon wool column to prepare a T cell-rich fraction (responder cells). The BALB/c-derived cell suspension was irradiated with X-rays to prepare stimulator cells. The responder cells and stimulator cells were mixed in a ratio of 1:1 and incubated in a CO2 incubator for 4 days. Following addition of 3H-thymidine, the cells were further culturen overnight. The cells were then recovered and the amount of ^3 H-thymidine uptake was determined. The samples (500, 125, 31.2, and 7.8 μg/ml solutions of dimethyl sulfoxide diluted with the medium) were respectively added in a proportion of 0.5% at mixing the responder cells with the stimulator cells to final concentrations of 25 to 0.039 μg/ml. The inhibitory activity was determined by comparison with the 3H-thymidine uptake in the sample-free group.

[10] = Solubility in various solvents; type: physicochemical

Row | Structure (SMILES) | IC50 [1] [µg/mL] | MIC [1] [µg/mL] | IC50 [2] [µg/mL] | MIC [2] [µg/mL] | IC50 ([3]; read-out: 50% inhibitory concentration (in parentheses)) [µg/mL] | MIC [3] [µg/mL] | IC50 [4] [µg/mL] | MIC [4] [µg/mL] | Toxic response [5] | IC50 [6] [µg/mL] | Inhibition (%) ([7]; Phospholipase A2, test concentration 10 μg/ml) | Inhibition (%) ([7]; Phospholipase A2, test concentration 100 μg/ml) | Inhibition (%) ([8]; test concentration 30 μg/ml) | Inhibition (%) ([8]; test concentration 300 μg/ml) | IC50 [9] [µg/mL] | Solubility in chloroform and hexane ([10]; chloroform, hexane) | Solubility in methanol and water ([10]; methanol, water)
1 | CCCCCCCCCCCCCC(O)CC(O)C(N)CC(=O)N[C@H](C(=O)NC(CO)CO)[C@@H](C)CC (single isomer, unassigned) [TKR1785-II] | 25 (≈ 47 µM) | 50 (≈ 94 µM) | 6.25 (≈ 11.8 µM) | 12.5 (≈ 23.5 µM) | 6.25 (≈ 11.8 µM) | 12.5 (≈ 23.5 µM) | 6.25 (≈ 11.8 µM) | 12.5 (≈ 23.5 µM) | no toxic response was found | – | – | – | – | – | – | – | –
2 | CCCCCCCCCCCCCC(O)CC(O)C(N)CC(=O)N[C@H](C(=O)NC(CO)CO)C(C)C (single isomer, unassigned) [TKR1785-I] | 3.13 (≈ 6.05 µM) | 25 (≈ 48.3 µM) | 6.25 (≈ 12.1 µM) | 12.5 (≈ 24.1 µM) | – | 6.25 (≈ 12.1 µM) | 3.13 (≈ 6.05 µM) | 6.25 (≈ 12.1 µM) | no toxic response was found | 12.5 (≈ 24.1 µM) | 33 | 92 | 21 | 98 | 0.41 (≈ 0.792 µM) | only sparingly soluble in chloroform and hexane | soluble in methanol and water
